Results as given in PubChem BioAssay AID256 (DTP/NCI, 2004).
Values joined by “and” are separate entries in the source; they are usually repeats but may differ in a detail not shown here. Equal values may be shown once. Toxic doses and inconclusive results are not listed. How the source made its calls: active means survival T/C of 150% or more; inactive means T/C below 125% in these data.

Tested on: CD2F1 mice, L1210 leukemia ip, survival T/C
Test: NCI In Vivo Anticancer Drug Screen. Data for tumor model L1210 Leukemia (intraperitoneal) in CD2F1 (CDF1) mice
Conditions: higher = longer survival
Method in brief: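 Transplantable tumor in mice; compound-treated vs vehicle-treated groups. Read-out = treated/control ratio of the measured endpoint.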

[1] = endpoint: mean survival time, dose: 12.5 mg/kg/injection, schedule: Q01DX009 (ip), vehicle: Klucel (hydroxypropylcellulose) (HPC)
[2] = endpoint: mean survival time, dose: 25.0 mg/kg/injection, schedule: Q01DX009 (ip), vehicle: Klucel (hydroxypropylcellulose) (HPC)
[3] = endpoint: mean survival time, dose: 50.0 mg/kg/injection, schedule: Q01DX009 (ip), vehicle: Klucel (hydroxypropylcellulose) (HPC)
[4] = endpoint: mean survival time, dose: 75.0 mg/kg/injection, schedule: Q01DX009 (ip), vehicle: saline
[5] = endpoint: mean survival time, dose: 100.0 mg/kg/injection, schedule: Q04DX002 (ip), vehicle: saline with Tween-80
[6] = endpoint: mean survival time, dose: 150.0 mg/kg/injection, schedule: Q01DX009 (ip), vehicle: saline
[7] = endpoint: mean survival time, dose: 200.0 mg/kg/injection, schedule: Q04DX002 (ip), vehicle: saline with Tween-80
[8] = endpoint: mean survival time, dose: 400.0 mg/kg/injection, schedule: Q04DX002 (ip), vehicle: saline with Tween-80
[9] = endpoint: mean survival time, dose: 100.0 mg/kg/injection, schedule: Q01DX001 (ip), vehicle: saline
[10] = endpoint: mean survival time, dose: 200.0 mg/kg/injection, schedule: Q01DX001 (ip), vehicle: saline
[11] = endpoint: mean survival time, dose: 400.0 mg/kg/injection, schedule: Q01DX001 (ip), vehicle: saline
[12] = endpoint: mean survival time, dose: 100.0 mg/kg/injection, schedule: Q01DX009 (ip), vehicle: saline with Tween-80
[13] = endpoint: mean survival time, dose: 50.0 mg/kg/injection, schedule: Q01DX009 (ip), vehicle: saline with Tween-80
[14] = endpoint: mean survival time, dose: 200.0 mg/kg/injection, schedule: Q01DX009 (ip), vehicle: saline with Tween-80
[15] = endpoint: mean survival time, dose: 100.0 mg/kg/injection, schedule: Q04DX003 (ip), vehicle: saline
[16] = endpoint: mean survival time, dose: 200.0 mg/kg/injection, schedule: Q04DX003 (ip), vehicle: saline
[17] = endpoint: mean survival time, dose: 25.0 mg/kg/injection, schedule: Q01DX009 (ip), vehicle: saline
[18] = endpoint: mean survival time, dose: 50.0 mg/kg/injection, schedule: Q01DX009 (ip), vehicle: saline
[19] = endpoint: mean survival time, dose: 100.0 mg/kg/injection, schedule: Q01DX009 (ip), vehicle: Klucel (hydroxypropylcellulose) (HPC)
[20] = endpoint: mean survival time, dose: 200.0 mg/kg/injection, schedule: Q01DX009 (ip), vehicle: Klucel (hydroxypropylcellulose) (HPC)

Measured: T/C

O=C(NNc1ccccc1)c1ccccc1
inactive: [1] 110 % of control | [2] 105 % of control | [3] 106 % of control | [4] 96 % of control | [5] 110 % of control | [6] 97 % of control | [7] 100 % of control | endpoint: mean survival time, dose: 300.0 mg/kg/injection, schedule: Q01DX009 (ip), vehicle: saline 98 % of control | [8] 110 % of control

CC(C)(C)/[N+]([O-])=C/Cc1ccccc1
inactive: endpoint: mean survival time, dose: 25.0 mg/kg/injection, schedule: Q04DX002 (ip), vehicle: saline with Tween-80 97 % of control | endpoint: mean survival time, dose: 50.0 mg/kg/injection, schedule: Q04DX002 (ip), vehicle: saline with Tween-80 110 % of control | [5] 110 % of control

CC(C)CC(=O)c1ccccc1O
inactive: [9] 100 % of control | [10] 97 % of control | [11] 96 % of control

CN(C)C(=C1C=CC=C1)N(C)C
inactive: endpoint: mean survival time, dose: 75.0 mg/kg/injection, schedule: Q01DX001 (ip), vehicle: saline 95 % of control

CCOC(=O)c1c(C)c2c(n1C)CC/C(=C\N1CCN(c3ccccc3)CC1)C2=O
inactive: [5] 93 % of control | [7] 89 % of control | [8] 86 % of control

CC(C)(C)[Si](C)(C)OP(=O)(O[Si](C)(C)C(C)(C)C)N(CCCl)CCCl
inactive: endpoint: mean survival time, dose: 15.63 mg/kg/injection, schedule: Q01DX001 (ip), vehicle: distilled water + Tween-80 97 % of control | endpoint: mean survival time, dose: 31.3 mg/kg/injection, schedule: Q01DX001 (ip), vehicle: distilled water + Tween-80 103 % of control | endpoint: mean survival time, dose: 62.5 mg/kg/injection, schedule: Q01DX001 (ip), vehicle: distilled water + Tween-80 106 % of control | endpoint: mean survival time, dose: 125.0 mg/kg/injection, schedule: Q01DX001 (ip), vehicle: distilled water + Tween-80 105 % of control | endpoint: mean survival time, dose: 250.0 mg/kg/injection, schedule: Q01DX001 (ip), vehicle: distilled water + Tween-80 101 % of control | endpoint: mean survival time, dose: 500.0 mg/kg/injection, schedule: Q01DX001 (ip), vehicle: distilled water + Tween-80 109 % of control

CC(=O)[C@]1(O)Cc2c(O)c3c(c(O)c2[C@@H](OC2CC(N)C(O)C(C)O2)C1)C(=O)c1c(O)cccc1C3=O (stereo partly drawn)
inactive: endpoint: mean survival time, dose: 0.05 mg/kg/injection, schedule: Q01DX009 (ip), vehicle: saline 118 % of control | endpoint: mean survival time, dose: 0.08 mg/kg/injection, schedule: Q01DX009 (ip), vehicle: saline 120 % of control | endpoint: mean survival time, dose: 0.08 mg/kg/injection, schedule: Q04DX003 (ip), vehicle: saline 107 % of control | endpoint: mean survival time, dose: 0.14 mg/kg/injection, schedule: Q04DX003 (ip), vehicle: saline 109 % of control | endpoint: mean survival time, dose: 0.23 mg/kg/injection, schedule: Q04DX003 (ip), vehicle: saline 123 % of control | endpoint: mean survival time, dose: 0.39 mg/kg/injection, schedule: Q01DX009 (ip), vehicle: saline 113 % of control | endpoint: mean survival time, dose: 0.65 mg/kg/injection, schedule: Q01DX009 (ip), vehicle: saline 88 % of control

C[N+]1(C)CCC(=O)CC1
inactive: [12] 101 % of control

COc1cc(Cl)ccc1C
inactive: endpoint: mean survival time, dose: 12.5 mg/kg/injection, schedule: Q01DX009 (ip), vehicle: saline with Tween-80 97 % of control | endpoint: mean survival time, dose: 25.0 mg/kg/injection, schedule: Q01DX009 (ip), vehicle: saline with Tween-80 97 % of control | [13] 95 % of control | [12] 100 % of control | [14] 91 % of control

O=C1c2ccccc2C(=O)c2c1cn1c2Cc2ccccc2C1
inactive: endpoint: median survival time, dose: 9.0 mg/kg/injection, schedule: Q01DX005 (ip), vehicle: Klucel (hydroxypropylcellulose) (HPC) 106 % of control | endpoint: median survival time, dose: 9.37 mg/kg/injection, schedule: Q01DX005 (ip), vehicle: other 106 % of control and 107 % of control | endpoint: median survival time, dose: 12.5 mg/kg/injection, schedule: Q01DX005 (ip), vehicle: Klucel (hydroxypropylcellulose) (HPC) 110 % of control | endpoint: median survival time, dose: 15.0 mg/kg/injection, schedule: Q01DX005 (ip), vehicle: Klucel (hydroxypropylcellulose) (HPC) 109 % of control | endpoint: median survival time, dose: 18.75 mg/kg/injection, schedule: Q01DX005 (ip), vehicle: other 114 % of control and 103 % of control | endpoint: median survival time, dose: 25.0 mg/kg/injection, schedule: Q01DX005 (ip), vehicle: Klucel (hydroxypropylcellulose) (HPC) 107 % of control | endpoint: median survival time, dose: 37.5 mg/kg/injection, schedule: Q01DX005 (ip), vehicle: other 114 % of control and 111 % of control | endpoint: median survival time, dose: 41.66 mg/kg/injection, schedule: Q01DX005 (ip), vehicle: Klucel (hydroxypropylcellulose) (HPC) 114 % of control | endpoint: median survival time, dose: 50.0 mg/kg/injection, schedule: Q01DX005 (ip), vehicle: Klucel (hydroxypropylcellulose) (HPC) 108 % of control | endpoint: median survival time, dose: 69.44 mg/kg/injection, schedule: Q01DX005 (ip), vehicle: Klucel (hydroxypropylcellulose) (HPC) 106 % of control | endpoint: median survival time, dose: 75.0 mg/kg/injection, schedule: Q01DX005 (ip), vehicle: other 114 % of control and 98 % of control | endpoint: median survival time, dose: 100.0 mg/kg/injection, schedule: Q01DX005 (ip), vehicle: Klucel (hydroxypropylcellulose) (HPC) 122 % of control | endpoint: median survival time, dose: 150.0 mg/kg/injection, schedule: Q01DX005 (ip), vehicle: other 110 % of control | endpoint: median survival time, dose: 200.0 mg/kg/injection, schedule: Q01DX005 (ip), vehicle: Klucel (hydroxypropylcellulose) (HPC) 107 % of control

CCOC(=O)CSCc1ccc(C(C)(C)C)cc1
inactive: [9] 96 % of control | [10] 98 % of control | [11] 93 % of control

Cc1cc2nc(CN)[nH]c2cc1C
inactive: [15] 98 % of control | [16] 95 % of control

CC/C(=C/c1ccc(OC)cc1)[N+](=O)[O-]
inactive: [1] 113 % of control | [2] 102 % of control | [3] 94 % of control

COc1ccccc1NC(=O)Oc1ccc(C(C)(C)C)cc1
inactive: [5] 96 % of control | [7] 88 % of control | [8] 100 % of control

OCC#CCO
inactive: endpoint: mean survival time, dose: 12.0 mg/kg/injection, schedule: Q01DX009 (ip), vehicle: saline 94 % of control | [17] 93 % of control | [18] 104 % of control

CNC(=O)Oc1cccn(C(=O)NC)c1=O
inactive: endpoint: mean survival time, dose: 12.5 mg/kg/injection, schedule: Q01DX009 (ip), vehicle: saline 98 % of control and 101 % of control | [17] 103 % of control and 107 % of control | [18] 107 % of control and 109 % of control | endpoint: mean survival time, dose: 75.0 mg/kg/injection, schedule: Q01DX009 (ip), vehicle: Klucel (hydroxypropylcellulose) (HPC) 112 % of control | [4] 104 % of control and 109 % of control and 112 % of control | endpoint: mean survival time, dose: 100.0 mg/kg/injection, schedule: Q01DX009 (ip), vehicle: saline 115 % of control | [6] 113 % of control and 110 % of control

CCOC(=O)C(C)C1(O)CCCCC1 (stereo not drawn)
inactive: endpoint: mean survival time, dose: 100.0 mg/kg/injection, schedule: Q04DX003 (ip), vehicle: saline with Tween-80 101 % of control | endpoint: mean survival time, dose: 200.0 mg/kg/injection, schedule: Q04DX003 (ip), vehicle: saline with Tween-80 101 % of control | endpoint: mean survival time, dose: 400.0 mg/kg/injection, schedule: Q04DX003 (ip), vehicle: saline with Tween-80 92 % of control

CNc1cc([N+](=O)[O-])ccc1Br
inactive: endpoint: mean survival time, dose: 100.0 mg/kg/injection, schedule: Q04DX002 (ip), vehicle: other 91 % of control | endpoint: mean survival time, dose: 200.0 mg/kg/injection, schedule: Q04DX002 (ip), vehicle: other 100 % of control | endpoint: mean survival time, dose: 400.0 mg/kg/injection, schedule: Q04DX002 (ip), vehicle: other 95 % of control

Cc1c(F)cccc1[N+](=O)[O-]
inactive: [13] 101 % of control | [12] 104 % of control | [14] 98 % of control

Cc1ccc(S(=O)(=O)CCCCl)cc1
inactive: [3] 111 % of control | [19] 95 % of control | [20] 100 % of control

COc1cc2c(c(OC)c1OC)-c1ccc(SC)c(=O)cc1C(NC(=S)NC1OC(COC(C)=O)C(OC(C)=O)C(OC(C)=O)C1OC(C)=O)CC2 (stereo not drawn)
inactive: [3] 86 % of control | [19] 89 % of control | [20] 101 % of control

C=CCOC(=N)C(Cl)(Cl)Cl
inactive: [13] 106 % of control | [12] 95 % of control

C/C=C\c1ccc(OCCOC(=O)Nc2ccc(Cl)cc2C)c(OC)c1
inactive: [13] 87 % of control | [12] 92 % of control | [14] 100 % of control

C[N+](C)(C)CC[N+](C)(C)C
inactive: endpoint: mean survival time, dose: 50.0 mg/kg/injection, schedule: Q04DX003 (ip), vehicle: saline 100 % of control | [15] 103 % of control | [16] 97 % of control

O=C(O)CC(O)C(=O)O.[Fe] (stereo not drawn)
inactive: [9] 93 % of control

CCC(C)N(C)/N=N/c1nc[nH]c1C(N)=O (stereo not drawn)
inactive: [14] 104 % of control
